For assay [1], the system named is SJSA-1 (MDM2 amplified, p53 wild-type osteosarcoma). Kind of assay: Protocol A: SJSA-1 growth inhibition (SRB).
Procedure: Protocol A: SJSA-1 and SN40R2 Assays
Following incubation with the SRB dye at room temperature for 30 min, the plates were washed with 1% acetic acid and left to dry. […] The GI50 was calculated by non-linear regression analysis of the data using Prism v4.0 statistical software.
A further assay concerns SJSA-1. Kind of assay: Protocol B: SJSA-1 CellTiter-Glo cell viability. The settings on record: Homo sapiens, SJSA-1, 72 h, read-out: SJSA1 IC50 (μM) (Protocol B), SJSA-1, Protocol B (CellTiter-Glo), 72 hrs. A general note: Cellular ATP, detected with luciferase, serves as a proxy for viable cell number.
The target of assay [2] is MDM2-p53 interaction (in vitro translated MDM2, biotinylated IP3 peptide) (Homo sapiens, UniProt Q00987). In words: MDM2-p53 interaction 96-well plate binding assay (ELISA). As to conditions: @ 0.0010 μM; read-out: MDM2 % @ concentration. (In general: An ELISA detects its analyte on a solid surface through an enzyme-linked reagent.)
Setting [3] is: Homo sapiens, SJSA-1, 72 h, read-out: SJSA-1 IC50 (μM) (Protocol A), SJSA-1, Protocol A (SRB), 72 hrs.

As usually defined, the IC50 is the concentration needed to halve the response being measured.

Each structure is given as a SMILES string. Like-named read-outs stand apart in the source and are kept apart here.

MDM2-p53 interaction (in vitro translated MDM2, biotinylated IP3 peptide), sequence (Q00987 whole entry): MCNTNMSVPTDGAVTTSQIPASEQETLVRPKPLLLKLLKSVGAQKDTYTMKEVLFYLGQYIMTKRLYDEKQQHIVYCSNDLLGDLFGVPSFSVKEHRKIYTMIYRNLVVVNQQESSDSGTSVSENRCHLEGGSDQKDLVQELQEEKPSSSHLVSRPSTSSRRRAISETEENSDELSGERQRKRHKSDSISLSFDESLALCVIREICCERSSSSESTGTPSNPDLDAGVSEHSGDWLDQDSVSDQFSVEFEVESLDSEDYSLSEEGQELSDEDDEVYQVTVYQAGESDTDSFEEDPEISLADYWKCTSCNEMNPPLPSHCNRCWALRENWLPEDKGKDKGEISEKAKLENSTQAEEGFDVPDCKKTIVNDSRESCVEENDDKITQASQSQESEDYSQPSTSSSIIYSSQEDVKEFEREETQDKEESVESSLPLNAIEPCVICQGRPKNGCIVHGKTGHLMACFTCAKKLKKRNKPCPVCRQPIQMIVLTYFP

With `CCC(O)(c1cc(F)c2c(c1)C(=O)N(Cc1ccc(C#N)cn1)[C@@]2(OCCOC)c1ccc(Cl)cc1)c1cn(C)cn1` (single isomer, unassigned) [Example 430], the 50% inhibitory concentration (IC50) in assay [1] (setting [3]) was found to be 0.11 µM; with SJSA-1 it was 0.18 µM.

With `CCC(O)(c1cc(F)c2c(c1)C(=O)N(Cc1ccc(C#N)nc1)[C@@]2(O[C@H]1CCOC1)c1ccc(Cl)cc1)c1cn(C)cn1` (single isomer, unassigned) [Example 431], in assay [1] (setting [3]), the half-maximal inhibitory concentration (IC50) worked out at 0.11 µM.

Consider `CCC(O)(c1cc(F)c2c(c1)C(=O)N(Cc1ncc(C#N)cn1)[C@@]2(OCC1(C#N)CC1)c1ccc(Cl)cc1)c1cn(C)cn1` (single isomer, unassigned) [Example 462], for which the 50% inhibitory concentration (IC50) in assay [1] (setting [3]) turned out to be 0.073 µM; in the assay on SJSA-1, 0.047 µM. With `CCC(O)(c1cc(F)c2c(c1)C(=O)N(Cc1ncc(Cl)cn1)[C@@]2(O[C@H]1CCOC1)c1ccc(Cl)cc1)c1cn(C)cn1` (single isomer, unassigned) [Example 475], in assay [1] (setting [3]), the half-maximal inhibitory concentration (IC50) is 0.028 µM.

Consider `CCC(O)(c1cc(F)c2c(c1)C(=O)N(Cc1ncc(Cl)cn1)[C@@]2(OCC1(CO)CC1)c1ccc(Cl)cc1)c1cn(C)cn1` (single isomer, unassigned) [Example 477], for which, in assay [1] (setting [3]), the half-inhibitory concentration (IC50) is 0.013 µM. On the same count and under the same terms, in the case of `CCC(O)(c1cc(F)c2c(c1)C(=O)N(Cc1ncc(Cl)cn1)[C@@]2(OCCO)c1ccc(Cl)cc1)[C@H]1CC[C@H](O)CC1` (single isomer, unassigned) [Example 517] it was 0.019 µM. As for `CN1CCC(C(C)(O)c2cc(F)c3c(c2)C(=O)N(Cc2ncc(Cl)cn2)[C@@]3(OCC2(CO)CC2)c2ccc(Cl)cc2)CC1` (single isomer, unassigned) [Example 554], the IC50 was determined as 0.21 µM in assay [1] (setting [3]) and 0.07 µM with SJSA-1. For the molecule `CCC(O)(c1cc(F)c2c(c1)C(=O)N(Cc1ncc(Cl)cn1)[C@@]2(O[C@H]1C[C@@H](O)C1)c1ccc(Cl)cc1)C1(F)CCN(C)CC1` (single isomer, unassigned) [Example 570], the IC50 was 0.034 µM in assay [1] (setting [3]) and 0.046 µM in the assay on SJSA-1.

In the case of `CC(O)(CO)c1cc(F)c2c(c1)C(=O)N(Cc1ccc(Cl)cn1)[C@@]2(OCC1(CO)CC1)c1ccc(Cl)cc1` (stereo partly drawn) [Example 17, (3R)-3-(4-Chlorophenyl)-2-[(5-chloropyridin-2-yl)methyl]-6-(1,2-dihydroxypropan-2-yl)-4-fluoro-3-({1-[hydroxy(^2H2)methyl]cyclopropyl}(^2H2)methoxy)-2,3-dihydro-1H-isoindol-1-one], in assay [1] (read-out: SJSA-1 IC50 (Protocol A), SJSA-1 cells, SRB, 72 hrs), the IC50 is 0.1 µM. In the case of `C[C@@H](CO[C@]1(c2ccc(Cl)cc2)c2c(F)cc(C(C)(C)O)cc2C(=O)N1Cc1ccc(Cl)cn1)C(N)=O` [Example 167, (2S)-3-{[(1R)-1-(4-Chlorophenyl)-2-[(5-chloropyridin-2-yl)methyl]-7-fluoro-5-(2-hydroxypropan-2-yl)-3-oxo-2,3-dihydro-1H-isoindol-1-yl]oxy}-2-methylpropanamide], the IC50 in assay [1] (Homo sapiens, SJSA-1, 72 h, read-out: SJSA-1 IC50 (Protocol A), SJSA-1 cells, SRB, 72 hrs) stood at 0.64 µM. Take `CCC(O)(c1cc(F)c2c(c1)C(=O)N(Cc1ncc(Cl)cn1)[C@@]2(OCC1(C(N)=O)CC1)c1ccc(Cl)cc1)c1cn(C)cn1` (stereo partly drawn) [Example 486, 1-({[(1R)-1-(4-chlorophenyl)-2-[(5-chloropyrimidin-2-yl)methyl]-7-fluoro-5-[1-hydroxy-1-(1-methyl-1H-imidazol-4-yl)propyl]-3-oxo-2,3-dihydro-1H-isoindol-1-yl]oxy}methyl) cyclopropane-1-carboxamide]: in assay [1] (setting [3]), the IC50 came to 0.075 µM.

For `CCC(O)(c1cc(F)c2c(c1)C(=O)N(Cc1ncc(C#N)cn1)[C@@]2(O[C@H]1CCOC1)c1ccc(Cl)cc1)[C@H]1CC[C@H](O)CC1` (stereo partly drawn) [Example 503, 2-{[(1R)-1-(4-chlorophenyl)-7-fluoro-5-{1-hydroxy-1-[trans-4-hydroxycyclohexyl]propyl}-3-oxo-1-[(3S)-oxolan-3-yloxy]-2,3-dihydro-1H-isoindol-2-yl]methyl}pyrimidine-5-carbonitrile], the IC50 in the assay with SJSA-1 is 0.011 µM. Further, in assay [2], the inhibition at 0.001 µM is 87%.

The values are drawn from patent publication US10526311B2 (ASTEX THERAPEUTICS LIMITED, priority 2015, dated 2020).
